pIC50: −log10 of the molar value.
Tested on: 323965-272-R-J2-PDC complex spheroid viability
Assay: Anticancer human tumor 323965-272-R-J2-PDC patient-derived pancreatic carcinoma cell line growth inhibition [CLK]
Conditions: for pIC50: curve of first compound; for viability, T/C: stronger effect = lower value
Method in brief: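 Patient-derived tumor cells grown as complex spheroids with HUVEC endothelial cells and mesenchymal stem cells, treated with drug combinations. Concentrations descend in half-log steps from near clinical Cmax, or from 10 microM if Cmax unknown.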

[1] = second compound 0.0316 µM, first compound 0.0316 µM
[2] = second compound 0.0316 µM, first compound 0.1 µM
[3] = second compound 0.0316 µM, first compound 0.316 µM
[4] = second compound 0.0316 µM, first compound 1 µM
[5] = second compound 0.0316 µM, first compound 3.16 µM
[6] = second compound 0.0316 µM, first compound 10 µM
[7] = second compound 0.1 µM, first compound 0.0316 µM
[8] = second compound 0.1 µM, first compound 0.1 µM
[9] = second compound 0.1 µM, first compound 0.316 µM
[10] = second compound 0.1 µM, first compound 1 µM
[11] = second compound 0.1 µM, first compound 3.16 µM
[12] = second compound 0.1 µM, first compound 10 µM
[13] = second compound 0.316 µM, first compound 0.0316 µM
[14] = second compound 0.316 µM, first compound 0.1 µM
[15] = second compound 0.316 µM, first compound 0.316 µM
[16] = second compound 0.316 µM, first compound 1 µM
[17] = second compound 0.316 µM, first compound 3.16 µM
[18] = second compound 0.316 µM, first compound 10 µM
[19] = second compound 1 µM, first compound 0.0316 µM
[20] = second compound 1 µM, first compound 0.1 µM
[21] = second compound 1 µM, first compound 0.316 µM
[22] = second compound 1 µM, first compound 1 µM
[23] = second compound 1 µM, first compound 3.16 µM
[24] = second compound 1 µM, first compound 10 µM
[25] = second compound 3.16 µM, first compound 0.0316 µM
[26] = second compound 3.16 µM, first compound 0.1 µM
[27] = second compound 3.16 µM, first compound 0.316 µM
[28] = second compound 3.16 µM, first compound 1 µM
[29] = second compound 3.16 µM, first compound 3.16 µM
[30] = second compound 3.16 µM, first compound 10 µM
[31] = second compound 10 µM, first compound 0.0316 µM
[32] = second compound 10 µM, first compound 0.1 µM
[33] = second compound 10 µM, first compound 0.316 µM
[34] = second compound 10 µM, first compound 1 µM
[35] = second compound 10 µM, first compound 3.16 µM
[36] = second compound 10 µM, first compound 10 µM
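Note: spheroids exposed to agents for seven days before readout.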
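Throughout, for viability, T/C: percent of DMSO vehicle control wells so 100% = untreated growth.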

CC1(C)CCC(CN2CCN(c3ccc(C(=O)NS(=O)(=O)c4ccc(NCC5CCOCC5)c([N+](=O)[O-])c4)c(Oc4cnc5[nH]ccc5c4)c3)CC2)=C(c2ccc(Cl)cc2)C1 + CN1CCN(c2cc(C(=O)Nc3cc4cc(-c5cnn(C)c5)ccc4cn3)ccn2)CC1
pIC50 (second compound 0.0316 µM): 5.30 | pIC50 (second compound 0.1 µM): 5.44 | pIC50 (second compound 0.316 µM): > 7.50 | pIC50 (second compound 1 µM): > 7.50 | pIC50 (second compound 3.16 µM): > 7.50 | pIC50 (second compound 10 µM): > 7.50 | viability, T/C [1]: 91.3% | viability, T/C [2]: 97.7% | viability, T/C [3]: 93.8% | viability, T/C [4]: 92.2% | viability, T/C [5]: 78.8% | viability, T/C [6]: 5.11% | viability, T/C [7]: 69.6% | viability, T/C [8]: 63.8% | viability, T/C [9]: 65.4% | viability, T/C [10]: 68.5% | viability, T/C [11]: 55.8% | viability, T/C [12]: 5.08% | viability, T/C [13]: 27.8% | viability, T/C [14]: 24.5% | viability, T/C [15]: 28.6% | viability, T/C [16]: 27.1% | viability, T/C [17]: 20.2% | viability, T/C [18]: 4.31% | viability, T/C [19]: 3.4% | viability, T/C [20]: 3.32% | viability, T/C [21]: 4.86% | viability, T/C [22]: 2.95% | viability, T/C [23]: 2.45% | viability, T/C [24]: 2.47% | viability, T/C [25]: 3.55% | viability, T/C [26]: 3.34% | viability, T/C [27]: 3.03% | viability, T/C [28]: 2.11% | viability, T/C [29]: 1.06% | viability, T/C [30]: 0.14% | viability, T/C [31]: 4.06% | viability, T/C [32]: 3.26% | viability, T/C [33]: 3.77% | viability, T/C [34]: 2.06% | viability, T/C [35]: 0.92% | viability, T/C [36]: 3.22%

Nc1ccccc1NC(=O)c1ccc(CNC(=O)OCc2cccnc2)cc1 + CNC(=O)c1ccc(Nc2nc(OC3CCCC3)c3c(-c4ccc5nc(C)oc5c4)c[nH]c3n2)c(OC)c1
pIC50 (second compound 0.0316 µM): 5.26 | pIC50 (second compound 0.1 µM): 5.19 | pIC50 (second compound 0.316 µM): 5.62 | pIC50 (second compound 1 µM): 5.95 | pIC50 (second compound 3.16 µM): > 7.50 | pIC50 (second compound 10 µM): > 7.50 | viability, T/C [1]: 112% | viability, T/C [2]: 113% | viability, T/C [3]: 118% | viability, T/C [4]: 93.5% | viability, T/C [5]: 58.4% | viability, T/C [6]: 41.4% | viability, T/C [7]: 90.3% | viability, T/C [8]: 89% | viability, T/C [9]: 98.3% | viability, T/C [10]: 92.2% | viability, T/C [11]: 62.1% | viability, T/C [12]: 42.8% | viability, T/C [13]: 67.2% | viability, T/C [14]: 69.2% | viability, T/C [15]: 72.6% | viability, T/C [16]: 75.3% | viability, T/C [17]: 43.4% | viability, T/C [18]: 28.8% | viability, T/C [19]: 62.4% | viability, T/C [20]: 57.5% | viability, T/C [21]: 58.7% | viability, T/C [22]: 51.7% | viability, T/C [23]: 35.3% | viability, T/C [24]: 26.2% | viability, T/C [25]: 50.7% | viability, T/C [26]: 47.7% | viability, T/C [27]: 49.8% | viability, T/C [28]: 44% | viability, T/C [29]: 32.2% | viability, T/C [30]: 25.5% | viability, T/C [31]: 41% | viability, T/C [32]: 47.3% | viability, T/C [33]: 47.1% | viability, T/C [34]: 37.5% | viability, T/C [35]: 31.2% | viability, T/C [36]: 25.7%

C#Cc1c(F)ccc2cc(O)cc(-c3ncc4c(N5CC6CCC(C5)N6)nc(OCC56CCCN5CC(F)C6)nc4c3F)c12 (stereo unspecified) + CN1CCN(c2cc(C(=O)Nc3cc4cc(-c5cnn(C)c5)ccc4cn3)ccn2)CC1
pIC50 (second compound 0.0316 µM): < 5.00 | pIC50 (second compound 0.1 µM): 5.52 | pIC50 (second compound 0.316 µM): > 7.50 | pIC50 (second compound 1 µM): > 7.50 | pIC50 (second compound 3.16 µM): > 7.50 | pIC50 (second compound 10 µM): > 7.50 | viability, T/C [1]: 101% | viability, T/C [2]: 101% | viability, T/C [3]: 101% | viability, T/C [4]: 95.8% | viability, T/C [5]: 67.1% | viability, T/C [6]: 50.9% | viability, T/C [7]: 68.8% | viability, T/C [8]: 73.2% | viability, T/C [9]: 71.1% | viability, T/C [10]: 63.3% | viability, T/C [11]: 49.9% | viability, T/C [12]: 42.6% | viability, T/C [13]: 28.4% | viability, T/C [14]: 25.6% | viability, T/C [15]: 24.8% | viability, T/C [16]: 22.9% | viability, T/C [17]: 17.8% | viability, T/C [18]: 15.1% | viability, T/C [19]: 3.55% | viability, T/C [20]: 3.52% | viability, T/C [21]: 3.35% | viability, T/C [22]: 3.07% | viability, T/C [23]: 2.52% | viability, T/C [24]: 2.87% | viability, T/C [25]: 3.72% | viability, T/C [26]: 4.19% | viability, T/C [27]: 3.39% | viability, T/C [28]: 3.07% | viability, T/C [29]: 3.51% | viability, T/C [30]: 5.09% | viability, T/C [31]: 4.24% | viability, T/C [32]: 4.08% | viability, T/C [33]: 5.09% | viability, T/C [34]: 3.16% | viability, T/C [35]: 3.48% | viability, T/C [36]: 3.19%
